Read-outs that look alike come from different tables or passages of the source.
Assays:
Assay type in all cases: physicochemical
[1] = DVS water sorption isotherm, 25° C. scanned over 0 to 95% relative humidity (hygroscopicity)
Description: In various embodiments, the hygroscopicity of crystal forms of racemic amisulpride, enantiomeric amisulpride, and enantiomeric amisulpride solvates are characterized by dynamic vapor sorption (DVS). DVS is a gravimetric technique that measures how much of a solvent is absorbed by a sample by varying the vapor concentration surrounding the sample (e.g., relative humidity) and measuring the change in mass. In the present application, DVS is used to generate water sorption isotherms, which represent the equilibrium amount of vapor sorbed as a function of steady state relative vapor pressure at a constant temperature.

[2] = Solubility (mg/mL) in water, buffers, simulated fluids and organic solvents (Table 1)
[3] = Solid form stability on storage at 25° C. and 60% relative humidity; details: after 4 months at 25° C. and 60% relative humidity (RH)
[4] = DVS, 25° C., 0 to 95% relative humidity

CCN1CCC[C@@H]1CNC(=O)c1cc(S(=O)(=O)CC)c(N)cc1OC [(R)-amisulpride Form A, R-4-Amino-N-[(1-ethyl-2-pyrrolidinyl)methyl]-5-(ethylsulfonyl)-2-methoxybenzamide]
hygroscopicity [1, 4]: substantially non-hygroscopic (less than a 1% maximum mass change in water sorption isotherms, at 25 °C scanned over 0 to 95% relative humidity)
maximum mass change in water sorption isotherms [1, 4]: 0.183%
average maximum mass change ([1]; DVS, average over the samples of Tables 6A-6C (Form A′) or 6D-6E (Form A)): about 0.17%
Change Mass ([1]; FIG. 2D, RH 1.28 %, elapse time 173.0 min): 0.000 wt %
Change Mass ([1]; FIG. 2D, RH 5.03 %, elapse time 515.4 min): 0.004 wt %
Change Mass ([1]; FIG. 2D, RH 5.05 %, elapse time 854.6 min): 0.008 wt %
Change Mass ([1]; FIG. 2D, RH 5.19 %, elapse time 181.6 min): 0.004 wt %
Change Mass ([1]; FIG. 2D, RH 9.87 %, elapse time 523.4 min): 0.008 wt %
Change Mass ([1]; FIG. 2D, RH 10.07 %, elapse time 189.1 min): 0.010 wt %
Change Mass ([1]; FIG. 2D, RH 10.08 %, elapse time 507.4 min): 0.010 wt %
Change Mass ([1]; FIG. 2D, RH 10.10 %, elapse time 846.6 min): 0.014 wt %
Change Mass ([1]; FIG. 2D, RH 14.89 %, elapse time 531.4 min): 0.014 wt %
Change Mass ([1]; FIG. 2D, RH 14.91 %, elapse time 196.6 min): 0.017 wt %
Change Mass ([1]; FIG. 2D, RH 15.10 %, elapse time 499.4 min): 0.017 wt %
Change Mass ([1]; FIG. 2D, RH 15.15 %, elapse time 838.6 min): 0.021 wt %
Change Mass ([1]; FIG. 2D, RH 19.83 %, elapse time 204.6 min): 0.024 wt %
Change Mass ([1]; FIG. 2D, RH 19.90 %, elapse time 539.4 min): 0.020 wt %
Change Mass ([1]; FIG. 2D, RH 20.10 %, elapse time 491.4 min): 0.023 wt %
Change Mass ([1]; FIG. 2D, RH 20.13 %, elapse time 830.5 min): 0.028 wt %
Change Mass ([1]; FIG. 2D, RH 24.87 %, elapse time 548.4 min): 0.027 wt %
Change Mass ([1]; FIG. 2D, RH 24.89 %, elapse time 483.4 min): 0.029 wt %
Change Mass ([1]; FIG. 2D, RH 24.93 %, elapse time 822.5 min): 0.033 wt %
Change Mass ([1]; FIG. 2D, RH 24.98 %, elapse time 213.7 min): 0.031 wt %
Change Mass ([1]; FIG. 2D, RH 29.88 %, elapse time 222.7 min): 0.039 wt %
Change Mass ([1]; FIG. 2D, RH 29.89 %, elapse time 557.4 min): 0.034 wt %
Change Mass ([1]; FIG. 2D, RH 30.13 %, elapse time 475.9 min): 0.036 wt %
Change Mass ([1]; FIG. 2D, RH 30.15 %, elapse time 815.0 min): 0.040 wt %
Change Mass ([1]; FIG. 2D, RH 34.83 %, elapse time 566.4 min): 0.042 wt %
Change Mass ([1]; FIG. 2D, RH 34.93 %, elapse time 467.4 min): 0.043 wt %
Change Mass ([1]; FIG. 2D, RH 34.94 %, elapse time 806.5 min): 0.046 wt %
Change Mass ([1]; FIG. 2D, RH 34.97 %, elapse time 231.7 min): 0.046 wt %
Change Mass ([1]; FIG. 2D, RH 39.80 %, elapse time 240.7 min): 0.054 wt %
Change Mass ([1]; FIG. 2D, RH 39.88 %, elapse time 457.4 min): 0.050 wt %
Change Mass ([1]; FIG. 2D, RH 39.95 %, elapse time 796.5 min): 0.053 wt %
Change Mass ([1]; FIG. 2D, RH 39.99 %, elapse time 577.4 min): 0.049 wt %
Change Mass ([1]; FIG. 2D, RH 44.82 %, elapse time 249.7 min): 0.061 wt %
Change Mass ([1]; FIG. 2D, RH 44.93 %, elapse time 586.4 min): 0.056 wt %
Change Mass ([1]; FIG. 2D, RH 45.05 %, elapse time 786.5 min): 0.060 wt %
Change Mass ([1]; FIG. 2D, RH 45.17 %, elapse time 447.9 min): 0.058 wt %
Change Mass ([1]; FIG. 2D, RH 49.96 %, elapse time 597.5 min): 0.063 wt %
Change Mass ([1]; FIG. 2D, RH 49.98 %, elapse time 258.7 min): 0.068 wt %
Change Mass ([1]; FIG. 2D, RH 50.04 %, elapse time 775.5 min): 0.067 wt %
Change Mass ([1]; FIG. 2D, RH 50.07 %, elapse time 438.8 min): 0.065 wt %
Change Mass ([1]; FIG. 2D, RH 54.98 %, elapse time 606.5 min): 0.070 wt %
Change Mass ([1]; FIG. 2D, RH 55.01 %, elapse time 269.7 min): 0.076 wt %
Change Mass ([1]; FIG. 2D, RH 55.07 %, elapse time 427.8 min): 0.073 wt %
Change Mass ([1]; FIG. 2D, RH 55.14 %, elapse time 764.5 min): 0.074 wt %
Change Mass ([1]; FIG. 2D, RH 59.95 %, elapse time 278.7 min): 0.084 wt %
Change Mass ([1]; FIG. 2D, RH 59.95 %, elapse time 617.5 min): 0.078 wt %
Change Mass ([1]; FIG. 2D, RH 60.08 %, elapse time 416.8 min): 0.081 wt %
Change Mass ([1]; FIG. 2D, RH 60.16 %, elapse time 753.5 min): 0.082 wt %
Change Mass ([1]; FIG. 2D, RH 64.91 %, elapse time 628.5 min): 0.086 wt %
Change Mass ([1]; FIG. 2D, RH 64.92 %, elapse time 289.7 min): 0.091 wt %
Change Mass ([1]; FIG. 2D, RH 65.11 %, elapse time 742.5 min): 0.090 wt %
Change Mass ([1]; FIG. 2D, RH 65.16 %, elapse time 405.8 min): 0.090 wt %
Change Mass ([1]; FIG. 2D, RH 69.88 %, elapse time 300.7 min): 0.099 wt %
Change Mass ([1]; FIG. 2D, RH 69.98 %, elapse time 639.5 min): 0.094 wt %
Change Mass ([1]; FIG. 2D, RH 70.09 %, elapse time 394.8 min): 0.099 wt %
Change Mass ([1]; FIG. 2D, RH 70.18 %, elapse time 731.5 min): 0.098 wt %
Change Mass ([1]; FIG. 2D, RH 74.63 %, elapse time 648.5 min): 0.103 wt %
Change Mass ([1]; FIG. 2D, RH 74.64 %, elapse time 309.7 min): 0.108 wt %
Change Mass ([1]; FIG. 2D, RH 75.39 %, elapse time 383.8 min): 0.109 wt %
Change Mass ([1]; FIG. 2D, RH 75.48 %, elapse time 720.5 min): 0.109 wt %
Change Mass ([1]; FIG. 2D, RH 79.56 %, elapse time 318.7 min): 0.119 wt %
Change Mass ([1]; FIG. 2D, RH 79.66 %, elapse time 657.5 min): 0.113 wt %
Change Mass ([1]; FIG. 2D, RH 80.45 %, elapse time 374.8 min): 0.124 wt %
Change Mass ([1]; FIG. 2D, RH 80.45 %, elapse time 711.5 min): 0.123 wt %
Change Mass ([1]; FIG. 2D, RH 84.45 %, elapse time 666.5 min): 0.128 wt %
Change Mass ([1]; FIG. 2D, RH 84.52 %, elapse time 327.8 min): 0.134 wt %
Change Mass ([1]; FIG. 2D, RH 85.43 %, elapse time 702.5 min): 0.152 wt %
Change Mass ([1]; FIG. 2D, RH 85.47 %, elapse time 365.8 min): 0.155 wt %
Change Mass ([1]; FIG. 2D, RH 89.51 %, elapse time 336.8 min): 0.152 wt %
Change Mass ([1]; FIG. 2D, RH 89.63 %, elapse time 675.5 min): 0.147 wt %
Change Mass ([1]; FIG. 2D, RH 90.09 %, elapse time 356.8 min): 0.168 wt %
Change Mass ([1]; FIG. 2D, RH 90.20 %, elapse time 693.5 min): 0.164 wt %
Change Mass ([1]; FIG. 2D, RH 94.80 %, elapse time 347.8 min): 0.183 wt %
Change Mass ([1]; FIG. 2D, RH 94.89 %, elapse time 684.5 min): 0.175 wt %
Change Mass ([1]; FIG. 2E, RH 19.69 %, elapse time 383.8 min): 0.012 wt %
Change Mass ([1]; FIG. 2E, RH 24.95 %, elapse time 392.9 min): 0.018 wt %
Change Mass ([1]; FIG. 2E, RH 29.81 %, elapse time 401.9 min): 0.024 wt %
Change Mass ([1]; FIG. 2E, RH 34.97 %, elapse time 412.9 min): 0.032 wt %
Change Mass ([1]; FIG. 2E, RH 39.81 %, elapse time 421.9 min): 0.038 wt %
Change Mass ([1]; FIG. 2E, RH 44.97 %, elapse time 432.9 min): 0.044 wt %
Change Mass ([1]; FIG. 2E, RH 45.03 %, elapse time 627.0 min): 0.046 wt %
Change Mass ([1]; FIG. 2E, RH 49.81 %, elapse time 441.9 min): 0.051 wt %
Change Mass ([1]; FIG. 2E, RH 50.10 %, elapse time 618.0 min): 0.052 wt %
Change Mass ([1]; FIG. 2E, RH 54.81 %, elapse time 450.9 min): 0.059 wt %
Change Mass ([1]; FIG. 2E, RH 55.04 %, elapse time 609.0 min): 0.059 wt %
Change Mass ([1]; FIG. 2E, RH 59.91 %, elapse time 461.9 min): 0.066 wt %
Change Mass ([1]; FIG. 2E, RH 60.10 %, elapse time 598.0 min): 0.067 wt %
Change Mass ([1]; FIG. 2E, RH 64.88 %, elapse time 472.9 min): 0.074 wt %
Change Mass ([1]; FIG. 2E, RH 65.19 %, elapse time 586.9 min): 0.075 wt %
Change Mass ([1]; FIG. 2E, RH 69.81 %, elapse time 483.9 min): 0.082 wt %
Change Mass ([1]; FIG. 2E, RH 70.16 %, elapse time 575.9 min): 0.083 wt %
Change Mass ([1]; FIG. 2E, RH 74.59 %, elapse time 492.9 min): 0.090 wt %
Change Mass ([1]; FIG. 2E, RH 75.44 %, elapse time 564.9 min): 0.092 wt %
Change Mass ([1]; FIG. 2E, RH 79.63 %, elapse time 501.9 min): 0.100 wt %
Change Mass ([1]; FIG. 2E, RH 80.52 %, elapse time 555.9 min): 0.105 wt %
Change Mass ([1]; FIG. 2E, RH 84.55 %, elapse time 510.9 min): 0.112 wt %
Change Mass ([1]; FIG. 2E, RH 85.39 %, elapse time 546.9 min): 0.126 wt %
Change Mass ([1]; FIG. 2E, RH 89.85 %, elapse time 519.9 min): 0.127 wt %
Change Mass ([1]; FIG. 2E, RH 90.10 %, elapse time 537.9 min): 0.137 wt %
Change Mass ([1]; FIG. 2E, RH 94.52 %, elapse time 528.9 min): 0.149 wt %
solubility ([2]; aqueous buffer, 0.05M Acetate Buffer, solution pH 4.5, read-out: Solubility (mg/mL): 0.05M Acetate Buffer): > 100 mg/mL
solubility ([2]; pH 1.1, Simulated Gastric Fluid (no enzyme), pH adjusted to 1.1 (Form A), 1.2 (Form A′), read-out: Solubility (mg/mL): Simulated Gastric Fluid (no enzyme)): > 100 mg/mL
solubility ([2]; pH 6.7, fassgf or other biorelevant, Simulated Intestinal Fluid (no enzyme), pH adjusted to 6.7 (Form A), 6.9 (Form A′), read-out: Solubility (mg/mL): Simulated Intestinal Fluid (no enzyme)): > 100 mg/mL
thermodynamic stability of crystal form (conversion to other polymorphs or amorphous form) [3]: not substantially converting to other polymorphs or amorphous form
